Key:
[1] = tested on: primary human hepatocytes (PHH); experiment: Western blot of γH2AX and p53 in primary human hepatocytes; conditions: 24 h; for γH2AX induction vs. control: selected concentrations
Method: (§1) Both cell lines were cultivated in DMEM high glucose without pyruvate (Gibco, Thermo Fisher Scientific, Waltham MA, USA) supplemented with 10% foetal calf serum (FCS, Pan-Biotech, Aidenbach, Germany) and 1% penicillin/streptomycin (Gibco, Thermo Fisher Scientific, Waltham MA, USA). […] Cryopreserved PHH (BioIVT, Brussels, Belgium) pooled from 10 donors (5 × females, 5 × males) were handled according to the protocol of the manufacturer. […] Cells were then diluted, plated for the respective assays in collagen-coated plates, and allowed to adhere for 3 h.
(§2) To this end, 5 × 10^5 cells were seeded in 3.5-cm dishes to adhere overnight. […] Proteins were separated by SDS-PAGE followed by the transfer onto a nitrocellulose membrane using the wet blot method. The successful transfer was confirmed by Ponceau S staining of the membrane before blocking with 5% non-fat dry milk in Tris-buffered saline with Tween-20 (MP-TBS-T). Subsequently, the membrane was incubated with the respective primary antibodies overnight at 4 °C. The membranes were washed three times for 5 min with TBS-T before incubating with the respective secondary antibody coupled with horseradish peroxidase. The detection was carried out using the Western Lightning Plus-ECL reagent (Perkin Elmer, Waltham MA, USA) with the c300 chemiluminescence imager (Azure Biosystems, Dublin CA, USA). The used primary and secondary antibodies are detailed in supplementary Table S3.

[2] = tested on: HepG2 cells
Method: (§3) The CBMN assay was performed according to the OECD test guideline #487. Therefore, 2 × 10^5 cells were seeded in 3.5 cm dishes and allowed to adhere for 24 h. […] After the 24 h treatment, the medium was discarded and the cells were incubated with fresh medium, containing 6 µg/mL cytochalasin B as cytokinesis inhibitor. The cells were then left to grow for 72 h, allowing for 1.5–2 × cell cycles. Subsequently, the cells were rinsed with PBS and fixed with ice-cold methanol for 10 min at –20 °C. Cells were washed and embedded with Vectashield® containing DAPI (Vector Labs, Burlingame, CA, USA). The samples were analysed with a Zeiss Axio Observer 7 microscope equipped with an Axiocam 305 mono and a 63 × oil immersion objective (plan-apochromat 63x/1.40 DIC M27) using ZEN Software 3.2. 500 binucleated cells per sample were analysed for micronuclei formation.
(§4) As benchmark response (BMR) for all concentration–response curves (adducts, micronuclei), a 2.0-fold increase vs. solvent control was used (BMC100, critical effect size = 1). The determined BMC100 and the corresponding upper and lower boundary (BMCU and BMCL, respectively) of the 90% confidence interval (CI) were used for potency comparison.

[3] = tested on: HepG2 cells; parameters: method as in Yang et al. 2022; conditions: MTT assay; ref Yang et al. 2022; cited from earlier work
[4] = tested on: primary human hepatocytes (PHH); experiment: Resazurin reduction assay (cytotoxicity) in PHH; conditions: 24 h
Method: as §1
PHH were seeded in 96-well plates precoated with collagen at a cell density of 7 × 10^4/well, left to adhere for 3 h, and treated as described above for 24 h. After treatment, medium was discarded and replaced by resazurin reaction solution containing 44 µM resazurin in NaCl/Pi buffer (1.1 mM KH2PO4, 154 mM NaCl, and 3.7 mM Na2HPO4∙H2O) diluted 1:10 in medium without FCS and P/S. The cells were then incubated for 1.5 h and fluorescence was measured using a Spark® microplate reader (Tecan, Männedorf, Switzerland) with an excitation at 544 nm and emission at 590 nm. The cell viability was calculated relative to the negative control (set to 100%).

[5] = tested on: rats; parameters: method as in Nesslany et al. 2010; conditions: up to 2 g ES/kg bw by oral gavage; ref Nesslany et al. 2010; cited from earlier work
[6] = parameters: method as in Yang et al. 2021; conditions: PBPK modelling, dietary uptake 0.01 mg/kg bw and day; ref Yang et al. 2021; cited from earlier work
[7] = tested on: HepG2-CYP1A2 cells; experiment: Western blot of γH2AX and p53 in HepG2-CYP1A2 cells; conditions: 24 h
Method: as §2, with “γH2AX and p53 levels were assessed by SDS-PAGE and western blotting as reported (Fahrer et al. [2013]). To” for “To”

[8] = tested on: HepG2-CYP1A2 cells; experiment: Alkaline comet assay (DNA strand breaks) in HepG2-CYP1A2 cells; conditions: 24 h
Method: As a positive control, tBuOOH (20 min, 200 µM) was used. Subsequently, the alkaline comet assay was performed to quantify DNA strand breaks as previously described (Haas et al. [2023b]). Per sample, at least 50 comets were counted with Comet IV software (Instem, Staffordshire, UK) using a Zeiss Axio Observer 7 microscope equipped with an Axiocam 305 mono and ZEN 3.2 software (Carl Zeiss, Jena, Germany).

[9] = tested on: HepaRG cells; parameters: method as in Le Hegarat et al. 2014; conditions: ref Le Hegarat et al. 2014; cited from earlier work
[10] = tested on: HepaRG cells; parameters: method as in Le Hegarat et al. 2014; conditions: up to 2 mM ES for 24 h; ref Le Hegarat et al. 2014; cited from earlier work
[11] = tested on: female gpt delta mice; parameters: method as in Suzuki et al. 2012b; conditions: ref Suzuki et al. 2012b; cited from earlier work
[12] = tested on: HepG2-CYP1A2 cells
Method: as §3, §4

[13] = endpoint MN (CBMN), BMR 2.0-fold increase
[14] = endpoint MN (CBMN), BMR 2.0-fold increase, 90% CI
[15] = range stated for both ES and 1′OH-ES

In the case of `C=CC(O)c1ccc(OC)cc1` (stereo not shown) [1′OH-ES, 1′-hydroxyestragole], the p53 levels [1] is reported as “slightly declined”, the “γH2AX induction vs. control” value [1] is reported as “threefold” and the “MN induction vs solvent control (CBMN)” value ([2]; 50 µM 1′OH-ES (top concentration)) is reported as “roughly a twofold induction”. The “concentration at which the increase in MN starts (CBMN)” value ([2]; 24 h + 72 h recovery) was 5 µM, the BMC100 [2, 13] was 32.0 µM and the BMCL [2, 14] was 21.0 µM. For the same molecule, the BMCU [2, 14] was 106 µM, the “BMC for clastogenic response vs BMC for DNA adduct formation” value [2, 15] was 12–17 fold and the EC50 [3] was 102 µM. For the same molecule, the EC50 ([4]; read-out: EC50 (cell viability)) was 107 µM.
For `C=CCc1ccc(OC)cc1` [ES, estragole], the “MN levels, study outcome” value [5] is listed as “negative”, the “predicted ES concentration in liver venous blood” value [6] is listed as 0.01 µM and the “γH2AX induction vs. control” value [1] is listed as 1.4 fold. The “γH2AX induction vs. control” value ([7]; 250 µM ES) was “threefold”, the p53 accumulation [7] was “No p53 accumulation” and the “DNA strand breaks (alkaline comet assay)” value ([8]; 2 mM ES, vs solvent control) was “small but not statistically significant increase”. The “DNA strand breaks (alkaline comet assay)” value ([8]; up to 2 mM ES) was “did not elicit an increase of DNA strand break levels”, the “lowest effect concentration for MN formation” value [9] was 1 mM and the “DNA strand breaks (comet assay) outcome” value [10] was “negative outcome”. For the same molecule, the “dose with significant increase in mutation frequency” value [11] was 75 mg/kg bw, the “MN induction vs solvent control (CBMN)” value ([12]; 2000 µM ES (top concentration)) was “roughly a twofold induction” and the “concentration at which the increase in MN starts (CBMN)” value ([12]; 24 h + 72 h recovery) was 500 µM. For the same molecule, the “concentrations at which clastogenicity was observed” value ([12]; CBMN and MN flow assay) was at least 1 mM, the BMC100 [12, 13] was 1116 µM and the BMCL [12, 14] was 555 µM. For the same molecule, the BMCU [12, 14] was 1755 µM, the “BMC for clastogenic response vs BMC for DNA adduct formation” value [12, 15] was 12–17 fold and the viability ([4]; test concentrations up to 5 mM) was “did not affect viability”.

From article PMC12408683 (Archives of Toxicology, 2025)
